# Tests used:
# [1] = test system: angiogenesis due to bFGF (rat cornea); assay: Angiogenesis inhibitory action by the rat cornea micropocket method; type: in vivo, male Sprague-Dawley rats; settings: sustained release pellet, 20 μg sample, next to bFGF pellet (250 ng) in cornea; observed after 10 days
# Source text: Angiogenesis inhibitory action by the rat cornea micropocket method
# Essentially the same method of Gimbrone et al. [J. National Cancer Institute 52:413-419 (1974)] was follows.
# Specifically, adult male Sprague-Dawley rats (11 to 16 week old) were anesthetized with nembtal and locally anesthetized by instillation of xylocaine eyedrops onto the eyeball. The cornea was incised to a length of about 2 mm at about 2 mm inside from the corneal circumference by means of an injection needle, and a basic fibroblast growth factor (bFGF, bovine brain-derived, purified product, R & D Inc.) and a sustained release pellet containing the test sample were inserted side by side into the incision so that the bFGF pellet was located on the central side in the cornea. In the control group, the bFGF pellet and a sample-free pellet were inserted into the cornea. After 10 days, the cornea was observed under a stereoscopic microscope.
# The sustained release pellets were prepared in the following manner. An ethylene-vinyl acetate copolymer (Takeda Chemical Industries, Ltd.) was dissolved in dichloromethane to a concentration of 8%. A 3 μl portion of the solution was air-dried on a glass dish, an aqueous solution of bFGF (250 ng) was then placed thereon and air-dried and, finally 3 μl of the above-mentioned ethylene-vinyl acetate copolymer solution was placed further thereon and air-dried to give a sandwich sheet. This sandwich sheet was made round into a bFGF pellet. The test sample pellets were prepared by dissolving each sample in ethanol to a concentration of 20 μg/2 μl, mixing the solution with 6 μl of an ethylene-vinyl acetate copolymer solution, air-drying the mixed solution on a glass dish and making the thus-obtained sheet round.
# In the above Table 1, the number of rats subjected to the test was shown by denominator, and the number of rats whose […] due to bFGF was retarded or weakened by administration of the test sample was shown by numerator. In the judgment, +means an inhibition rate of 70% or more, and ±means that of less than 70% but exceeding 40%.
# M5076 cells = assay: Antitumor test in mice inoculated subcutaneously with M5076 cells (tumor size, T/C); type: in vivo, C57BL/6 mice; settings: Mus musculus, M5076, sc, 312 h, 30 mg/kg, subcutaneous, 10 times in total; tumor size after 13 days; read-out: T/C (%) (ratio of tumor size to control group)
# Procedure: C57BL/6 mice (a group consisting of 6 mice) were inoculated subcutaneously at the dorsolateral area with 2×10^6 M5076 cells, and then a test compound dissolved in a 5% gum arabic physiological saline solution was subcutaneously administered 10 times in total, i.e. 1st, 2nd, 4th, 5th, 6th, 7th, 8th, 9th, 11th and 12th day after the inoculation. After 13 days, the major axis (a) and the minor axis (b) of the tumor tissue were measured to determine the tumor size by the calculation formula of a×b^2 ×1/2. The ratio of the tumor size thus calculated to the tumor size of animals in the control group was shown by T/C (%).
smiles,measurement,setting,value
"C=C(C)C(=O)NC(=O)O[C@@H]1CC[C@](O)(CCl)[C@@H]([C@@]2(C)O[C@@H]2CC=C(C)C)[C@@H]1OC [Example 3, 4-O-(methacryloylcarbamoyl)-2-(1,2-epoxy-1,5-dimethyl-4-hexenyl)-3-methoxy-1-chloromethyl-1,4-cyclohexanediol]",Inhibitory Rate (rats whose angiogenesis due to bFGF was retarded or weakened / rats subjected to the test),[1],4/7
same,Judgment (Angiogenesis Inhibitory Activity),[1],± (that of less than 70% but exceeding 40%)
same,response vs control in vivo at 30 mg/kg,M5076 cells,36%

# From patent US5180735A, “Cyclohexanol derivatives, production and use thereof” (Takeda Chemical Industries, Ltd., priority 1989, dated 1993)
